The data set is described as follows: pH vs. solution stability of phosphono oxylmethyl prodrugs. It is filed as physicochemical.

As for phosphono oxymethyl talsaclidine, the Solubility entry by setting is: (pH of solution 5.45) “Best”; (pH of solution 6.45) “Fair”; (pH of solution 7.45) “Poor”.

As to phosphono oxylmethyl aceclidine, the Solubility entry reads like this: (pH of solution 5.22) “Best”; (pH of solution 6.22) “Fair”; (pH of solution 7.22) “Poor”.
